{"source": "paper PMC3692405", "about": "“Disease-associated mutations in CNGB3 promote cytotoxicity in photoreceptor-derived cells” (Molecular Vision, 2013)", "key": {"[1]": {"target": "T1, homomeric CNGA3-only channels (Homo sapiens, UniProt Q16281)", "T1 construct": "expressed in transfected cells; host or cells: Xenopus laevis oocytes injected with cRNA transcribed from pGEMHE constructs", "T1 sequence (Q16281 1-694)": "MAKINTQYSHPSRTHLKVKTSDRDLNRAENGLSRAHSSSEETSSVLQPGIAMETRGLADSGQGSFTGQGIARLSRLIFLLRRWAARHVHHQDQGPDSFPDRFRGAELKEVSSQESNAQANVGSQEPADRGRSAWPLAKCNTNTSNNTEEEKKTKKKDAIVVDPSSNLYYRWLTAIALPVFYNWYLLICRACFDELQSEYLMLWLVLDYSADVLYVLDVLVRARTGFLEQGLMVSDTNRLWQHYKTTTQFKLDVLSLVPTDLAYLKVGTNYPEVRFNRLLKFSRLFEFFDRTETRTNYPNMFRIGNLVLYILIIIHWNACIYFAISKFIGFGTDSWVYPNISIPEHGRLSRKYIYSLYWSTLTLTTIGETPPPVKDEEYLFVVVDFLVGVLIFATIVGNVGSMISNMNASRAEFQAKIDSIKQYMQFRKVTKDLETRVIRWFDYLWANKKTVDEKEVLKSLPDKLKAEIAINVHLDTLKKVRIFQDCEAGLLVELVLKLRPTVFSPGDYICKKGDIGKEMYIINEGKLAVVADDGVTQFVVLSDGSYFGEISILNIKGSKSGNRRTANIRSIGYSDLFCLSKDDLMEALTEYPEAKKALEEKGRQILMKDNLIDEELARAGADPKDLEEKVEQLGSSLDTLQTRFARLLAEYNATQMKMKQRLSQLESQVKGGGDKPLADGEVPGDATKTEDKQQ", "assay": "Inside-out patch-clamp recording of channels expressed in Xenopus oocytes (CNGA3 only)", "format": "biochemical", "conditions": "+80 mV, Hill fit, mean±SEM, n=9", "experimental": "For heterologous expression in Xenopus laevis oocytes, identical amounts of cDNA were linearized using SphI or NheI, and capped cRNA was transcribed in vitro using the T-7 RNA polymerase mMESSAGE mMACHINE® kit (Ambion, Austin, TX). cRNA concentrations and relative amounts were determined by denaturing gel electrophoresis and KODAK 1D image analysis software (Rochester, NY), as well as by spectrophotometry. […] Oocytes were incubated in ND96 (96 mM NaCl, 2 mM KCl, 1.8 mM CaCl2, 1 mM MgCl2, and 5 mM HEPES, pH 7.6, supplemented with 10 μg/ml gentamycin).\nTwo to seven days after microinjection of cRNA, patch-clamp experiments were performed using the inside-out configuration with an Axopatch 200B amplifier (Axon Instruments, Foster City, CA). Recordings were made at 20–23 °C. Data were acquired using Pulse software (HEKA Elektronik, Lambrecht, Germany). Current traces were elicited by voltage steps from a holding potential of 0 mV to +80 mV, then to −80 mV and back to 0 mV. […] We measured sensitivity to block by L-cis-diltiazem (RBI, Natick, MA) applied to the intracellular face of the patch in the presence of 0.1 μM CPT-cGMP. […] Data were analyzed using Igor (Wavemetrics, Lake Oswego, OR), SigmaPlot, and SigmaStat (Systat Software Inc., San Jose, CA). […] Statistical significance was determined using a Student t test or Mann–Whitney rank sum test, and a p value of <0.05 was considered significant."}, "[2]": {"test_system": "661W cells expressing CNGA3 plus WT CNGB3", "assay": "LDH-release cytotoxicity assay, cells expressing WT channels", "format": "cell-based, mouse", "conditions": "24 h", "experimental": "(§1) The mouse photoreceptor 661W cell line used in this study was generously provided by Dr. Al-Ubaidi (University of Oklahoma Health Sciences Center, Oklahoma City, OK). The 661W cells were routinely maintained in Dulbecco’s modified Eagle’s medium (Gibco, Carlsbad, CA), supplemented with 10% fetal bovine serum (Gemini Bioproducts, Sacramento, CA) and 1% penicillin/streptomycin (Gibco), at 37 °C in a humidified incubator with 5% CO2; cells were subcultured every 3–5 days. The 661W cells were transfected with pOPRSVI plasmids encoding human cone CNG channel subunits using Lipofectamine™ 2000 and OptiMEM (Life Technologies, Carlsbad, CA) according to the manufacturer’s protocol for cells in suspension. […]\n(§2) For most experiments, the LDH Cytotoxicity Detection Kit (Roche Applied Science) was used according to the manufacturer’s protocol (see also [37]). […] Following treatment, half of the culture medium was transferred to another 96-well plate and the LDH released into the culture medium was measured to assess the number of damaged/dead cells. Cells in the original plate were then lysed and the total amount of cellular LDH was assessed. The percentage cytotoxicity was then calculated from the ratio of LDH concentration in the medium/cells, and was normalized to the percentage cytotoxicity in untreated cells transfected with control pOPRSVI plasmid only."}, "[3]": {"test_system": "661W cells expressing CNGA3 plus CNGB3 T383fsX", "conditions": "for relative cytotoxicity (LDH release, normalized to untreated vector-only control): 24 h", "experimental": "(§3) The mouse photoreceptor 661W cell line used in this study was generously provided by Dr. Al-Ubaidi (University of Oklahoma Health Sciences Center, Oklahoma City, OK). The 661W cells were routinely maintained in Dulbecco’s modified Eagle’s medium (Gibco, Carlsbad, CA), supplemented with 10% fetal bovine serum (Gemini Bioproducts, Sacramento, CA) and 1% penicillin/streptomycin (Gibco), at 37 °C in a humidified incubator with 5% CO2; cells were subcultured every 3–5 days. The 661W cells were transfected with pOPRSVI plasmids encoding human cone CNG channel subunits using Lipofectamine™ 2000 and OptiMEM (Life Technologies, Carlsbad, CA) according to the manufacturer’s protocol for cells in suspension. A reporter plasmid—a green fluorescent protein-expressing vector (pQBI25-fC2, Wako Pure Chemical Industries, Ltd., Japan) using a constitutive CMV promoter—was transfected under the same conditions to assess transfection efficiency. […] In addition, the pOPRSVI plasmid was transfected alone as a negative control. The amounts of each vector were as follows (µg/10 cm^2 culture surface): 2 FLAG- or GFP-CNGA3 plus 2 FLAG-CNGB3 (WT, T383fsX or F525N); 4 GFP; or 4 pOPRSVI.\n(§4) For most experiments, the LDH Cytotoxicity Detection Kit (Roche Applied Science) was used according to the manufacturer’s protocol (see also [37]). Briefly, cultured 661W cells were transfected with the desired plasmid constructs as described above and then plated in 96-well tissue culture plates at a density of approximately 8×10^3 cells/well. Forty-eight hours after transfection, cells were treated with various concentrations of CPT-cGMP and/or CPT-cAMP (Sigma-Aldrich) alone or together with L-cis-diltiazem (Enzo Life Sciences, Inc., Farmingdale, NY) in Dulbecco’s modified Eagle’s medium supplemented with 1% fetal bovine serum for 24 h at 37 °C. Following treatment, half of the culture medium was transferred to another 96-well plate and the LDH released into the culture medium was measured to assess the number of damaged/dead cells. Cells in the original plate were then lysed and the total amount of cellular LDH was assessed. The percentage cytotoxicity was then calculated from the ratio of LDH concentration in the medium/cells, and was normalized to the percentage cytotoxicity in untreated cells transfected with control pOPRSVI plasmid only."}, "[4]": {"test_system": "661W cells expressing CNGA3 plus CNGB3 F525N", "conditions": "24 h", "experimental": "as §3, §4"}, "[5]": {"test_system": "channel-transfected 661W cells", "assay": "LDH-release cytotoxicity assay, channel-transfected cells", "format": "cell-based, mouse", "conditions": "CPT-cAMP alone, 0.1 to 10 µM; data not shown", "experimental": "as §1, §2"}, "[6]": {"conditions": "1 µM CPT-cAMP coapplied with 0.1 µM CPT-cGMP"}, "[7]": {"conditions": "10 µM CPT-cAMP combined with 0.1 µM CPT-cGMP"}}, "note": "Read-outs that look alike come from different tables or passages of the source."}
{"smiles": "Nc1nc2c(nc(Sc3ccc(Cl)cc3)n2[C@@H]2O[C@@H]3COP(=O)(O)O[C@H]3[C@H]2O)c(=O)[nH]1", "note": "[CPT-cGMP, 8-(4-chlorophenylthio) guanosine 3′,5′-cyclic monophosphate]", "values": [{"measurement": "Hill slope h, CPT-cGMP activation", "setting": "[1]", "result": "2.2±0.1"}, {"measurement": "EC50", "setting": "[1]; read-out: apparent CPT-cGMP affinity K1/2, CPT-cGMP (channel activation)", "result": "0.114 ± 0.0079", "unit": "µM"}, {"measurement": "relative cytotoxicity (LDH release, normalized to untreated vector-only control)", "setting": "[2]; 0.1 µM CPT-cGMP", "result": "1.11±0.04"}, {"measurement": "relative cytotoxicity (LDH release, normalized to untreated vector-only control)", "setting": "[3]; 0.1 µM CPT-cGMP", "result": "1.26±0.05"}, {"measurement": "relative cytotoxicity (LDH release, normalized to untreated vector-only control)", "setting": "[4]; 0.1 µM CPT-cGMP alone", "result": "1.59±0.05"}]}
{"smiles": "Nc1ncnc2c1nc(Sc1ccc(Cl)cc1)n2[C@@H]1O[C@@H]2COP(=O)(O)O[C@H]2[C@H]1O", "note": "[CPT-cAMP, CPT-adenosine 3′,5′-cyclic monophosphate]", "values": [{"measurement": "relative cytotoxicity (LDH release, normalized to untreated vector-only control)", "setting": "[2]; [6]", "result": "0.98±0.03"}, {"measurement": "effect on relative cytotoxicity", "setting": "[5]", "result": "no significant increase in relative cytotoxicity"}, {"measurement": "relative cytotoxicity (LDH release, normalized to untreated vector-only control)", "setting": "[3]; [7]", "result": "1.30±0.05"}, {"measurement": "effect on relative cytotoxicity compared to CPT-cGMP treatment alone", "setting": "[3]; various concentrations of CPT-cAMP coapplied with 0.1 µM CPT-cGMP", "result": "unaltered"}, {"measurement": "relative cytotoxicity (LDH release, normalized to untreated vector-only control)", "setting": "[4]; [6]", "result": "1.31±0.06"}, {"measurement": "relative cytotoxicity (LDH release, normalized to untreated vector-only control)", "setting": "[4]; [7]", "result": "1.67±0.08"}]}
